This note sets out measurements from patent US20050197371A1, “Urea derivatives as PDGFR modulators” (Ambit Biosciences Corporation, priority 2003, published 2005).

pKd: −log10 of the molar value.

In this assay the target is T1, PDGFRB(DKIN) (PDGFR-β) (Homo sapiens, UniProt P09619).
T1 construct: PDGFRB(DKIN)
The experiment in a line: Phage-display competitive binding assay, PDGFRB(DKIN). The conditions noted are these: T7 phage displaying human PDGFR-β, DKIN construct; read-out: Binding Assay: PDGFRB(DKIN). On the procedure: The term “ND” represents non-determined values.
Briefly, T7 phage displaying human PDGFR-β were incubated with an affinity matrix coated with known PDGFR-β inhibitor in the presence of various concentrations of the soluble competitor molecules.

For `CC(C)(C)c1cc(NC(=O)Nc2ccc(C(=O)/C=C/c3ccncc3)cc2)no1`, the pKd is 6.00 to 7.00.
Turning to `O=C(c1cc2ccccc2[nH]1)c1cc2cc(O)ccc2[nH]1`, the pKd is greater than 7.00.
The figure for `CC(C)(C)c1cnc(CSc2cnc(NC(=O)Nc3ccon3)s2)o1` is 5.00 to 6.00; for `CC(C)(C)c1cc(NC(=O)Nc2ccc(CCc3ccc(N)cc3)cc2)no1` [Compound A3] it is greater than 7.00; for `CC(C)(C)c1cc(NC(=O)Nc2ccc(Cl)cc2Cl)no1` [Compound A7] it is 5.00 to 6.00.
For the molecule `CC(C)c1ccc(NC(=O)Nc2cc(C(C)(C)C)no2)cc1` [Compound A11], the pKd was 6.00 to 7.00.
Take `CC(C)(C)c1cc(NC(=O)Nc2ccc(OC(F)F)cc2)no1` [Compound A12]: the pKd was 6.00 to 7.00.
Turning to `CC(C)(C)c1cc(NC(=O)Nc2ccc(OC(F)(F)F)cc2)on1` [Compound A13], the pKd is 6.00 to 7.00.
In the case of `CC(C)(C)c1cc(NC(=O)Nc2ccc(CCc3ccccc3)cc2)no1` [Compound A15], the pKd was greater than 7.00.
`CC(C)(C)c1ccc(NC(=O)Nc2cc(C(C)(C)C)no2)cc1` [Compound A16]: the pKd is 6.00 to 7.00.
For `CC(C)(C)c1cc(NC(=O)Nc2ccc3cc4ccccc4cc3c2)no1` [Compound A18], the pKd was 5.00 to 6.00.
For `CC(=O)c1ccc(NC(=O)Nc2cc(C(C)(C)C)on2)cc1` [Compound A20], the pKd was 6.00 to 7.00.
For `CC(C)(C)c1cc(NC(=O)Nc2ccc([N+](=O)[O-])cc2)no1` [Compound A21] the value was 6.00 to 7.00.
Turning to `CC(C)(C)c1cc(NC(=O)Nc2ccc(Oc3ccccc3)cc2)no1` [Compound A24], the pKd is 6.00 to 7.00.
The figure for `CC(C)c1ccc(NC(=O)Nc2cc(C(C)(C)C)on2)cc1` [Compound A25] is 6.00 to 7.00; for `CC(C)(C)c1cc(NC(=O)Nc2ccc(Br)cc2C(F)(F)F)on1` [Compound A26] it is 5.00 to 6.00; for `CC(C)(C)c1cc(NC(=O)Nc2ccc(Cl)cc2)no1` [Compound A27] it is 6.00 to 7.00.
Turning to `COc1ccc(NC(=O)Nc2cc(C(C)(C)C)on2)cc1` [Compound A29], the pKd was 6.00 to 7.00.
For the molecule `COc1ccc(NC(=O)Nc2cc(C(C)(C)C)no2)cc1` [Compound A30], the pKd is greater than 7.00.
In the case of `CC(C)(C)c1cc(NC(=O)Nc2ccc(Cl)cc2)on1` [Compound A32], the pKd is greater than 7.00.
Consider `Cc1ccc(NC(=O)Nc2cc(C(C)(C)C)on2)cc1` [Compound A33], for which the pKd was greater than 7.00.
The figure for `CC(C)(C)c1cc(NC(=O)Nc2ccc(OCCN3CCOCC3)c3ccccc23)no1` [Compound A36] is 5.00 to 6.00; for `CSc1ccc(NC(=O)Nc2cc(C(C)(C)C)on2)cc1` [Compound A37] it is 6.00 to 7.00.
For the molecule `CSc1ccc(NC(=O)Nc2cc(C(C)(C)C)no2)cc1` [Compound A39], the pKd is 6.00 to 7.00.
Take `C[S+]([O-])c1ccc(NC(=O)Nc2cc(C(C)(C)C)on2)cc1` (centres unmarked) [Compound A46]: the pKd was 6.00 to 7.00.
With `COc1ccc(NC(=O)Nc2cc(C(C)(C)C)on2)cc1OC` [Compound A55], the pKd was 5.00 to 6.00.
For `CC(C)(C)c1cc(NC(=O)Nc2ccc3c(c2)OCO3)no1` [Compound A56], the pKd was 5.00 to 6.00.
Take `CC(C)(C)c1cc(NC(=O)Nc2ccc(N3C(=O)c4ccccc4C3=O)cc2)no1` [Compound A57]: the pKd is greater than 7.00.
Consider `COc1cccc(CNC(=O)Nc2cc(C(C)(C)C)on2)c1` [Compound B3], for which the pKd is 6.00 to 7.00.
With `CC(C)(C)c1cc(NC(=O)Nc2ccc(C(=O)O)cc2)no1` [Compound C2], the pKd was less than 5.00.
Take `Cc1ccc(-n2nc(C(C)(C)C)cc2NC(=O)Nc2ccc(C(C)C)cc2)cc1` [Compound D1, 1-(3-tert-butyl-1-p-tolyl-1H-pyrazol-5-yl)-3-(4-isopropylphenyl)urea]: the pKd was less than 5.00.
Take `O=C(Nc1ccc(Cl)cc1)Nc1cc(C2CC2)nn1-c1ccccc1` [Compound D10]: the pKd is 5.00 to 6.00.
On to `CC(C)(C)c1cc(N2CCCN(c3ccc(OCc4ccccc4)cc3)C2=O)on1` [Compound E2], for which the pKd is 6.00 to 7.00.
Take `CC(C)(C)c1cc(N2CCCN(c3ccc(OCc4ccccc4)cc3)C2=O)no1` [Compound E3]: the pKd is less than 5.00.
On to `CN1CN(c2ccc(OCc3ccccc3)cc2)C(=O)N(c2cc(C(C)(C)C)on2)C1` [Compound E4], for which the pKd is 6.00 to 7.00.
As to `COc1ccc(N2CCCN(c3cc(C(C)(C)C)no3)C2=O)cc1` [Compound E5], the pKd was 6.00 to 7.00.
Regarding `CC(C)(C)c1cc(NC(=S)Nc2ccc(N3CCOCC3)cc2)no1` [Compound F1, 1-(5-tert-butylisoxazol-3-yl)-3-(4-morpholinophenyl)thiourea], the pKd is less than 5.00.
With `CC(C)(C)c1cc(NC(=O)Nc2ccc(OCc3ccccc3C(F)(F)F)cc2)no1` [Compound G4], the pKd is 6.00 to 7.00.
Consider `CC(C)(C)c1cc(NC(=O)Nc2ccc(OCc3ccc(OC(F)(F)F)cc3)cc2)no1` [Compound G5], for which the pKd is greater than 7.00.
Regarding `CC(C)(C)c1cc(NC(=O)Nc2ccc(OCc3ccc(C(F)(F)F)cc3)cc2)no1` [Compound G6], the pKd is greater than 7.00.
`COC(=O)c1cccc(COc2ccc(NC(=O)Nc3cc(C(C)(C)C)on3)cc2)c1` [Compound G7]: the pKd is greater than 7.00.
`CC(C)(C)c1cc(NC(=O)Nc2ccc(OCc3ccccc3-c3ccccc3)cc2)no1` [Compound G8]: the pKd is 6.00 to 7.00.
For `CC(C)(C)c1cc(NC(=O)Nc2ccc(OCc3ccc(C(=O)c4ccccc4)cc3)cc2)no1` [Compound G9] the value was 6.00 to 7.00; for `CC(C)(C)c1cc(NC(=O)Nc2ccc(OCc3ccccc3Cl)cc2)no1` [Compound G10], greater than 7.00.
For `CC(C)(C)c1cc(NC(=O)Nc2ccc(OCc3cccc(Cl)c3)cc2)no1` [Compound G11] the value was greater than 7.00; for `CC(C)(C)c1cc(NC(=O)Nc2ccc(OCc3ccccc3F)cc2)no1` [Compound G12, 1-(4-(2-fluorobenzyloxy)phenyl)-3-(5-tert-butylisoxazol-3-yl)urea], greater than 7.00; for `COc1cccc(COc2ccc(NC(=O)Nc3cc(C(C)(C)C)on3)cc2)c1` [Compound G13], greater than 7.00.
For `CC(C)(C)c1cc(NC(=O)Nc2ccc(OCc3cccc(F)c3)cc2)no1` [Compound G14] the value was greater than 7.00; for `Cc1ccc(COc2ccc(NC(=O)Nc3cc(C(C)(C)C)on3)cc2)cc1` [Compound G15], greater than 7.00.
Regarding `CC(Oc1ccc(NC(=O)Nc2cc(C(C)(C)C)on2)cc1)c1ccccc1` (centres unmarked) [Compound G17], the pKd is 6.00 to 7.00.
On to `CC(C)(C)c1cc(NC(=O)Nc2ccc(OCc3ccc(F)cc3Cl)cc2)no1` [Compound G18], for which the pKd was greater than 7.00.
Turning to `CC(C)(C)c1cc(NC(=O)Nc2ccc(OCc3c(Cl)cccc3Cl)cc2)no1` [Compound G19], the pKd is 6.00 to 7.00.
As to `CCOc1ccc(NC(=O)Nc2cc(C(C)(C)C)on2)cc1` [Compound G20], the pKd was greater than 7.00.
As for `CC(C)(C)c1cc(NC(=O)Nc2ccc(OCc3c(F)cccc3F)cc2)no1` [Compound G21], the pKd is greater than 7.00.
Regarding `CC(C)(C)c1cc(NC(=O)Nc2ccc(OCCc3ccncc3)cc2)no1` [Compound G22], the pKd is greater than 7.00.
Turning to `CC(C)(C)c1cc(NC(=O)Nc2ccc(OC/C=C/c3ccccc3Cl)cc2)no1` [Compound G26], the pKd was greater than 7.00.
For the molecule `CC(C)(C)c1cc(NC(=O)Nc2ccc(OCC(O)CO)cc2)no1` (centres unmarked) [Compound G28], the pKd was 6.00 to 7.00.
On to `CC(C)(C)c1cc(NC(=O)Nc2ccc(OCc3ccccc3)cc2)on1` [Compound G30], for which the pKd was greater than 7.00.
Regarding `CC(C)(C)c1cc(NC(=O)Nc2ccc(OCc3ccccc3)cc2)no1` [Compound G31], the pKd is greater than 7.00.
The figure for `C=CCOc1ccc(NC(=O)Nc2cc(C(C)(C)C)no2)cc1` [Compound G32] is greater than 7.00; for `CC(C)Oc1ccc(NC(=O)Nc2cc(C(C)(C)C)no2)cc1` [Compound G33] it is greater than 7.00; for `CC(C)(C)c1cc(NC(=O)Nc2ccc(OCc3ccc(Cl)cc3)cc2)no1` [Compound G34] it is greater than 7.00.
The figure for `CC(C)(C)c1cc(NC(=O)Nc2ccc(OCc3ccc(F)cc3)cc2)no1` [Compound G35] is greater than 7.00; for `CC(C)(C)c1cc(NC(=O)Nc2ccc(OCC3CC3)cc2)no1` [Compound G37] it is greater than 7.00.
`Cc1ccc(-n2nc(C(C)(C)C)cc2NC(=O)Nc2ccc(OCCN3CCOC(CO)C3)c3ccccc23)cc1` (centres unmarked) [Compound G38]: the pKd is 6.00 to 7.00.
Regarding `CC(C)(C)c1cc(NC(=O)Nc2ccc(OCC3CCC3)cc2)no1` [Compound G39], the pKd was greater than 7.00.
For `CC(C)(C)c1cc(NC(=O)Nc2ccc(OCCN3CCOCC3)cc2)no1` [Compound G40], the pKd is 5.00 to 6.00.
For `CC1CN(CCOc2ccc(NC(=O)Nc3cc(C(C)(C)C)on3)cc2)CC(C)O1` (centres unmarked) [Compound G42] the value was 6.00 to 7.00; for `CC1CCCN(CCOc2ccc(NC(=O)Nc3cc(C(C)(C)C)on3)cc2)C1` (centres unmarked) [Compound G44], less than 5.00; for `CC1CN(CCOc2ccc(NC(=O)Nc3cc(C(C)(C)C)on3)cc2)CCN1` (centres unmarked) [Compound G46], 5.00 to 6.00.
As for `CC(C)(C)c1cc(NC(=O)Nc2ccc(OCCN3CCC(O)CC3)cc2)no1` [Compound G48], the pKd is 5.00 to 6.00.
With `CC(C)(C)c1cc(NC(=O)Nc2ccc(OCCN3CCSCC3)cc2)no1` [Compound G53], the pKd is 6.00 to 7.00.
For the molecule `CC(C)(C)c1cc(NC(=O)Nc2ccc(OCc3ccc4nonc4c3)cc2)no1` [Compound G55], the pKd is 6.00 to 7.00.
The figure for `CC(C)(C)c1cc(NC(=O)Nc2ccc(OCc3ccc(-c4ccccc4)cc3)cc2)no1` [Compound G56] is greater than 7.00.
With `Cn1nc(C(C)(C)C)cc1NC(=O)Nc1ccc(OCc2ccccc2)cc1` [Compound H2], the pKd was 6.00 to 7.00.
On to `Cc1cc(NC(=O)Nc2ccc(OCc3ccccc3)cc2)n(-c2ccccc2)n1` [Compound H4], for which the pKd is 5.00 to 6.00.
For `Cn1nc(C2CC2)cc1NC(=O)Nc1ccc(OCc2ccccc2)cc1` [Compound H7] the value was less than 5.00.
